Here are results for 24 compounds from US20250276972A1, “COMPOUNDS AS CASEIN KINASE INHIBITORS” (GRITSCIENCE BIOPHARMACEUTICALS CO.,LTD., priority 2020, published 2025).

T1 sequence (P48730 whole entry): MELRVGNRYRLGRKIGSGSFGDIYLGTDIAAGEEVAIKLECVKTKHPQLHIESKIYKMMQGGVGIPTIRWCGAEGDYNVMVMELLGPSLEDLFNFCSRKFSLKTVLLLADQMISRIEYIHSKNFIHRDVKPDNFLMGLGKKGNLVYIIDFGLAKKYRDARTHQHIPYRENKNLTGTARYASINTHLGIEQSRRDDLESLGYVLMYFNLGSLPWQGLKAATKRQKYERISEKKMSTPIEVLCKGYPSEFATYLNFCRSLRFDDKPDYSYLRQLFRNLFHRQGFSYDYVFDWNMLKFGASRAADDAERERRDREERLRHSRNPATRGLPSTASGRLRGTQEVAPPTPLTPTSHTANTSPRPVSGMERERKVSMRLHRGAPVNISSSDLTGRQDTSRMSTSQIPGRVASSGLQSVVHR

This test concerns the target T1, CK1δ (Homo sapiens, UniProt P48730).
T1 construct: endogenous in cells; host or cells: Bmal1-dLuc or Per2-dLuc U2OS cells
The test can be described thus: CK1δ inhibition (EC50); Bmal1-dLuc or Per2-dLuc U2OS luminescence rhythm period assay. The format is cell-based. To be noted: Table 3. As for the experimental part: Bmall-dLuc or Per2-dLuc U2OS cells were suspended in the culture medium (DMEM supplemented with 10% fetal bovine serum, 0.29 mg/mL L-glutamine, 100 units/mL penicillin, and […] streptomycin) and plated onto 96-well white solid-bottom plates at 200 μL (10,000 cells) per well. After 2 days, 100 μL of the explant medium (DMEM supplemented with 2% B27, 10 mM HEPES, 0.38 mg/mL sodium bicarbonate, 0.29 mg/mL L-glutamine, 100 units/mL penicillin, […], 0.1 mg/mL gentamicin, and 1 mM luciferin, pH 7.2) was dispensed to each well, followed by the application of 1 μL of a compound of the present application (dissolved in DMSO; final concentration was 0.7% in DMSO). The plate was covered with an optically clear film and set to microplate reader (Infinite M200, Tecan).
A word on the EC50: it is the concentration needed to bring the measured effect to its halfway point. Lower therefore signals greater potency. As for `Cc1cc(-c2c(-c3ccc(F)cc3)nn3c2CN(C2COC2)CC3)ccn1` [Compound I-12, 2-(4-fluorophenyl)-3-(2-methylpyridin-4-yl)-5-(oxetan-3-yl)-4,5,6,7-tetrahydropyrazolo[1,5-a]pyrazine], the EC50 is 20 µM.
Next, `CS(=O)(=O)N1CCn2nc(-c3ccc(F)cc3)c(-c3ccnc(N)c3)c2C1` [Compound I-25, 4-(2-(4-fluorophenyl)-5-(methylsulfonyl)-4,5,6,7-tetrahydropyrazolo[1,5-a]pyrazin-3-yl)pyridin-2-amine]: 0.67 µM.
Next, `CCN1CCn2nc(-c3ccc(F)cc3)c(-c3ccnc(NC(C)=O)c3)c2C1` [Compound I-26, N-(4-(5-ethyl-2-(4-fluorophenyl)-4,5,6,7-tetrahydropyrazolo[1,5-a]pyrazin-3-yl)pyridin-2-yl)acetamide]: 0.4 µM; `CC(=O)Nc1cc(-c2c(-c3ccc(F)cc3)nn3c2CN(C(C)C)CC3)ccn1` [Compound I-27, N-(4-(2-(4-fluorophenyl)-5-isopropyl-4,5,6,7-tetrahydropyrazolo[1,5-a]pyrazin-3-yl)pyridin-2-yl)acetamide]: 0.5 µM.
To `CC(=O)Nc1cc(-c2c(-c3ccc(F)cc3)nn3c2CN(C2CC2)CC3)ccn1` [Compound I-28] belongs 0.6 µM; to `CC(=O)Nc1cc(-c2c(-c3ccc(F)cc3)nn3c2CN(CC(F)(F)F)CC3)ccn1` [Compound I-29, N-(4-(2-(4-fluorophenyl)-5-(2,2,2-trifluoroethyl)-4,5,6,7-tetrahydropyrazolo[1,5-a]pyrazin-3-yl)pyridin-2-yl)acetamide], 0.6 µM; to `CC(=O)Nc1cc(-c2c(-c3ccc(F)cc3)nn3c2CN(C(=O)C(F)(F)F)CC3)ccn1` [Compound I-30, N-(4-(2-(4-fluorophenyl)-5-(2,2,2-trifluoroacetyl)-4,5,6,7-tetrahydropyrazolo[1,5-a]pyrazin-3-yl)pyridin-2-yl)acetamide], 0.5 µM.
`CC(=O)Nc1cc(-c2c(-c3ccc(F)cc3)nn3c2CN(CCO)CC3)ccn1` [Compound I-31, N-(4-(2-(4-fluorophenyl)-5-(2-hydroxyethyl)-4,5,6,7-tetrahydropyrazolo[1,5-a]pyrazin-3-yl)pyridin-2-yl)acetamide] returned an EC50 of 0.3 µM. Against the preceding compound, the EC50 is about 1.7-fold lower.
To `CC(C)(C)C(=O)Nc1cc(-c2c(-c3ccc(F)cc3)nn3c2CN(S(C)(=O)=O)CC3)ccn1` [Compound I-32, N-(4-(2-(4-fluorophenyl)-5-(methylsulfonyl)-4,5,6,7-tetrahydropyrazolo[1,5-a]pyrazin-3-yl)pyridin-2-yl)pivalamide] belongs 0.8 µM; to `CNCCN1CCn2nc(-c3ccc(F)cc3)c(-c3ccnc(NC(C)=O)c3)c2C1` [Compound I-41, N-(4-(2-(4-fluorophenyl)-5-(2-(methylamino)ethyl)-4,5,6,7-tetrahydropyrazolo[1,5-a]pyrazin-3-yl)pyridin-2-yl)acetamide], 0.6 µM; to `CC(=O)Nc1cc(-c2c(-c3ccc(F)cc3)nn3c2CN(C2COC2)CC3)ccn1` [Compound I-46, N-(4-(2-(4-fluorophenyl)-5-(oxctan-3-yl)-4,5,6,7-tetrahydropyrazolo[1,5-a]pyrazin-3-yl)pyridin-2-yl)acetamide], 1.2 µM.
In turn, `CC(=O)Nc1cc(-c2c(-c3ccc(F)cc3)nn3c2CN(C2CC(F)C2)CC3)ccn1` (stereo not drawn) [Compound I-49, N-(4-(5-(3-fluorocyclobutyl)-2-(4-fluorophenyl)-4,5,6,7-tetrahydropyrazolo[1,5-a]pyrazin-3-yl)pyridin-2-yl)acetamide] had a half-maximal effective concentration (EC50) of 1.3 µM.
To `CCCC(=O)Nc1cc(-c2c(-c3ccc(F)cc3)nn3c2CN(C(=O)CCC)CC3)ccn1` [Compound I-56, N-(4-(5-butyryl-2-(4-fluorophenyl)-4,5,6,7-tetrahydropyrazolo[1,5-a]pyrazin-3-yl)pyridin-2-yl)butyramide] belongs 0.6 µM; to `CC(=O)Nc1cc(-c2c(-c3ccc(F)cc3)nn3c2CN(C(C)=S)CC3)ccn1` [Compound I-57], 0.5 µM.
To `CC(=O)Nc1cc(-c2c(-c3ccc(F)cc3)nn3c2CN(C)CC3)ccn1` [Compound I-71, N-(4-(2-(4-fluorophenyl)-5-methyl-4,5,6,7-tetrahydropyrazolo[1,5-a]pyrazin-3-yl)pyridin-2-yl)acetamide] belongs 1 µM; to `CC(=O)N1CCn2nc(-c3ccc(F)cc3)c(-c3ccnc(NC(=O)Cc4ccccc4)c3)c2C1` [Compound I-72, N-(4-(5-acetyl-2-(4-fluorophenyl)-4,5,6,7-tetrahydropyrazolo[1,5-a]pyrazin-3-yl)pyridin-2-yl)-2-phenylacetamide], 0.01 µM.
Next, `CC(=O)N1CCn2nc(-c3ccc(F)cc3)c(-c3ccnc(NC(=O)c4ccccc4)c3)c2C1` [Compound I-73, N-(4-(5-acetyl-2-(4-fluorophenyl)-4,5,6,7-tetrahydropyrazolo[1,5-a]pyrazin-3-yl)pyridin-2-yl)benzamide]: 0.11 µM.
`CC(=O)N1CCn2nc(-c3ccc(F)cc3)c(-c3ccnc(Nc4ccccc4)c3)c2C1` [Compound I-74, 1-(2-(4-fluorophenyl)-3-(2-(phenylamino)pyridin-4-yl)-6,7-dihydropyrazolo[1,5-a]pyrazin-5(4H)-yl)ethan-1-one] returned a 50% effective concentration (EC50) of 1.6 µM.
Next, `CC(=O)N1CCn2nc(-c3ccc(F)cc3)c(-c3ccnc(NC(=O)CC4CC4)c3)c2C1` [Compound I-75, N-(4-(5-acetyl-2-(4-fluorophenyl)-4,5,6,7-tetrahydropyrazolo[1,5-a]pyrazin-3-yl)pyridin-2-yl)-2-cyclopropylacetamide]: 0.2 µM; `CC(=O)N1CCn2nc(-c3ccc(F)cc3)c(-c3ccnc(NC(=O)c4ccn(C)n4)c3)c2C1` [Compound I-76, N-(4-(5-acetyl-2-(4-fluorophenyl)-4,5,6,7-tetrahydropyrazolo[1,5-a]pyrazin-3-yl)pyridin-2-yl)-1-methyl-1H-pyrazole-3-carboxamide]: 1 µM.
On to `O=C(Cc1ccc(F)cc1)Nc1cc(-c2c(-c3ccc(F)cc3)nn3c2CN(Cc2ccccc2)CC3)ccn1` [Compound I-94, N-(4-(5-benzyl-2-(4-fluorophenyl)-4,5,6,7-tetrahydropyrazolo[1,5-a]pyrazin-3-yl)pyridin-2-yl)-2-(4-fluorophenyl)acetamide], for which the half-maximal effective concentration (EC50) stood at 0.2 µM.
To `CC(=O)Nc1cc(-c2c(-c3ccc(F)cc3)nn3c2CN(Cc2ccccc2)CC3)ccn1` [Compound I-95, N-(4-(5-benzyl-2-(4-fluorophenyl)-4,5,6,7-tetrahydropyrazolo[1,5-a]pyrazin-3-yl)pyridin-2-yl)acetamide] belongs 1.7 µM; to `CCC(=O)Nc1cc(-c2c(-c3ccc(F)cc3)nn3c2CN(C(=O)CC)CC3)ccn1` [Compound I-97, N-(4-(2-(4-fluorophenyl)-5-propionyl-4,5,6,7-tetrahydropyrazolo[1,5-a]pyrazin-3-yl)pyridin-2-yl)propionamide], 0.9 µM.
Next, `CC(C)C(=O)Nc1cc(-c2c(-c3ccc(F)cc3)nn3c2CN(C(=O)C(C)C)CC3)ccn1` [Compound I-98, N-(4-(2-(4-fluorophenyl)-5-isobutyryl-4,5,6,7-tetrahydropyrazolo[1,5-a]pyrazin-3-yl)pyridin-2-yl)isobutyramide]: 2.1 µM.
